Source: patent US20240226072A1 (Stichting Het Nederlands Kanker Instituut, priority 2022, published 2024)

What was measured:
in vivo = conditions: male, mouse, po, 10 mg/kg; for AUC(0-t): AUC0-24 h
Procedure: The Jevtana (10 mg/mL) solution contains 0.26 mg/mL polysorbate 80 and 15% (w/v) ethanol, and is adjusted to pH 2-6 with citric acid. […] The stock solution was further diluted 5-fold with water to reach a 2.5 mg/mL dosing solution for oral administration. The vehicle solution only consists of polysorbate 80, ethanol and water (1:1:8, v/v/v). […] All dosing solutions were prepared freshly on the day of the experiment.
At the termination time point of 24 hours, mice were anesthetized using an isoflurane evaporator with 3% isoflurane with 0.8 L/min air and 0.3 L/min oxygen. A final blood sample was taken using cardiac puncture, using Eppendorf tubes previously prepared with heparin as an anticoagulant. Subsequently, the anesthetized mice were sacrificed by cervical dislocation and the tissues of interest were collected. Brain, liver, spleen, kidney, small intestine, and testis were collected. The small intestinal content (SIC) was separately collected by removing this from the small intestinal tissue, which was subsequently rinsed with saline to remove possibly fecal residue. The blood samples were centrifuged at 9,000×g for 6 minutes at 4° C., and the plasma fraction was isolated and stored at −30° C. until analysis. Brain, liver, spleen, kidney, small intestinal tissue, SIC, and testis were homogenized in a FastPrep-24™ 5G homogenizer (M. P. Biomedicals, Santa Ana, CA, USA) for 1 min with 1, 3, 1, 2, 3, 2, and 1 mL of 2% (w/v) BSA in Milli-Q water, respectively. Until analysis of the samples, they were all stored at −30° C.
Pharmacokinetic parameters were estimated by non-compartmental analysis using the software package of PK solutions 2.0.2 (SUMMIT, Research Service). The area under the curve (AUC) of the plasma-concentration time curve for all the compounds was calculated using the linear trapezoidal rule without extrapolating to infinity. The peak plasma concentration (Cmax) and the time to reach peak plasma concentration (Tmax) were obtained directly from the individual raw data. For the statistical analysis and the graphs GraphPad Prism 9 (GraphPad Software Inc., La Jolla, CA, USA) was used. The statistics for the comparison of multiple groups were calculated with the one-way analysis of variance (ANOVA), whereas Sidak's post hoc correction was performed. Log-transformation before statistical analysis was applied, when variances within the groups were not homogeneously distributed. Differences were considered statistically significant when P<0.05. All data are presented as geometric mean±SD.

[1] = Plasma pharmacokinetics and tissue distribution 2 h after oral cabazitaxel 10 mg/kg with vehicle or 25 mg/kg ritonavir in wild-type, Oatp1a/1b−/−, Oatp1a/1b/2b1−/−, OATP1B1- and OATP1B3-transgenic mice; format: in vivo; conditions: for reduction of SIC recovered percentage of dose corrected for the plasma AUC: vehicle + oral cabazitaxel 10 mg/kg, 2 h; for Cmax / Tmax / AUC(0-t): male, FVB, mouse, plasma, po, 10 mg/kg, vehicle pretreatment, oral 10 mg/kg cabazitaxel; for AUC(0-t): 0-2 h, read-out: AUC0-2 h
Procedure: All animals were fasted 2 to 3 hours prior to the start of the experiment to minimize variation in absorption after oral administration. […] Subsequently, cardiac puncture was performed with a heparinized needle and syringe collecting a final blood sample. […] All samples were stored at −30° C. until analysis.
Differences were considered statistically significant when P<0.05. All data are presented as geometric mean±SD.

[2] = Oatp1a/b−/− compared to wild-type mice after intravenous administration; Iusuf et al.; cited from earlier work
[3] = chemically castrated men compared to non-castrated patients; cited from earlier work
[4] = Cyp3aXAV (human CYP3A in Cyp3a−/−, FVB background)

AUC0-24 h (in vivo; [4]): 0.271 µM·h
AUC(0-t) (in vivo; [4]): 0.285 µM·h
AUC(0-t) (in vivo; FVB, Cyp3aXAV): 0.681 µM·h
AUC(0-t) (in vivo; FVB, wild-type): 0.707 µM·h
Cmax (in vivo; FVB, wild-type, Cmax): 119 nM
reduction of SIC recovered percentage of dose corrected for the plasma AUC ([1]; Oatp1a/1b/2b1−/− compared to wild-type mice): 2.9 fold
reduction of SIC recovered percentage of dose corrected for the plasma AUC ([1]; Oatp1a/1b−/− compared to wild-type mice): 4.0 fold
Cmax ([1]; OATP1B1-transgenic mice): 206 ± 105 nM
Tmax ([1]; OATP1B1-transgenic mice): 35 min
AUC(0-t) ([1]; OATP1B1-transgenic mice): 0.271 ± 0.144 µM·h
Cmax ([1]; OATP1B3-transgenic mice): 248 ± 145 nM
Tmax ([1]; OATP1B3-transgenic mice): 45 min
AUC(0-t) ([1]; OATP1B3-transgenic mice): 0.305 ± 0.177 µM·h
Cmax ([1]; Oatp1a/1b/2b1−/− mice): 202 ± 65 nM
Tmax ([1]; Oatp1a/1b/2b1−/− mice): 35 min
AUC(0-t) ([1]; Oatp1a/1b/2b1−/− mice): 0.252 ± 0.069 µM·h
Cmax ([1]; Oatp1a/1b−/− mice): 191 ± 43 nM
Tmax ([1]; Oatp1a/1b−/− mice): 35 min
AUC(0-t) ([1]; Oatp1a/1b−/− mice): 0.216 ± 0.047 µM·h
Cmax ([1]; wild-type mice): 84 ± 30 nM
Tmax ([1]; wild-type mice): 25 min
AUC(0-t) ([1]; wild-type mice): 0.091 ± 0.043 µM·h
SMILES: CC(=O)O[C@@]12CO[C@@H]1C[C@H](O)[C@@]1(C)C(=O)[C@H](O)C3=C(C)[C@@H](OC(=O)[C@H](O)[C@@H](NC(=O)OC(C)(C)C)c4ccccc4)C[C@@](O)([C@@H](OC(=O)c4ccccc4)[C@H]21)C3(C)C [docetaxel]
increase in plasma AUC [2]: 3 fold
reduction of plasma AUC [3]: 2 fold
